Paper PMC3343029, “Crystal Structure of the Cysteine Desulfurase DndA from Streptomyces lividans Which Is Involved in DNA Phosphorothioation” (PLoS ONE, 2012)

Target: T1, DndA (Streptomyces lividans, UniProt A7TUX7, C344S)
T1 construct: full length residues 1-380, N-terminal His-tag (pET28a), expressed in E. coli BL21(DE3); homodimer; residues 2-359 in the model
Test: X-ray crystallography, […] Å
Assay type: binding
Conditions: covalent; Schiff base with Lys200; crystals at pH 5.5 without L-cysteine

T1 sequence (A7TUX7 entry or part of it C344S): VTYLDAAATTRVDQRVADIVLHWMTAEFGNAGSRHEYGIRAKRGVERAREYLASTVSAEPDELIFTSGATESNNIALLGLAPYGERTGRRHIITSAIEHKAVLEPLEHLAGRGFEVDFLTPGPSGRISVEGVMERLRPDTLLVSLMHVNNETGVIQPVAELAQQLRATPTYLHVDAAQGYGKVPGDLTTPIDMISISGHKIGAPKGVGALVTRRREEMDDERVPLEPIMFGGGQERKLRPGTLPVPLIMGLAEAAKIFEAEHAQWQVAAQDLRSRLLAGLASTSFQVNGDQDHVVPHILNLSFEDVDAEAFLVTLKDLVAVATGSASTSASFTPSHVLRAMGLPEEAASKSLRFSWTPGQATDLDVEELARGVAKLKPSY

In the case of `Cc1ncc(COP(=O)(O)O)c(C=O)c1O` [PLP], the “X-ray crystallography, 2.4 Å” value is reported as “there is a PLP cofactor which forms a Schiff base covalent bond with the amino”.
